Laboratory results taken from patent USRE47047E1, “5-[(3,3,3-trifluoro-2-hydroxy-1-arylpropyl)amino]-1H-quinolin-2-ones, a process for their production and their use as anti-inflammatory agents” (ASTRAZENECA AB, priority 2007, dated 2018).

What was measured:
[1] = target: T1, glucocorticoid receptor (GR) (Homo sapiens, UniProt P04150); experiment: Binding to the glucocorticoid receptor (GR), recombinant receptor in cytosol preparations of Sf9 cells, [3H]-dexamethasone as reference; details: reference [3H]-dexamethasone
T1 construct: made in house; host or cells: Sf9 insect cells infected with recombinant baculovirus; cytosol preparation
T1 sequence (P04150 1-777): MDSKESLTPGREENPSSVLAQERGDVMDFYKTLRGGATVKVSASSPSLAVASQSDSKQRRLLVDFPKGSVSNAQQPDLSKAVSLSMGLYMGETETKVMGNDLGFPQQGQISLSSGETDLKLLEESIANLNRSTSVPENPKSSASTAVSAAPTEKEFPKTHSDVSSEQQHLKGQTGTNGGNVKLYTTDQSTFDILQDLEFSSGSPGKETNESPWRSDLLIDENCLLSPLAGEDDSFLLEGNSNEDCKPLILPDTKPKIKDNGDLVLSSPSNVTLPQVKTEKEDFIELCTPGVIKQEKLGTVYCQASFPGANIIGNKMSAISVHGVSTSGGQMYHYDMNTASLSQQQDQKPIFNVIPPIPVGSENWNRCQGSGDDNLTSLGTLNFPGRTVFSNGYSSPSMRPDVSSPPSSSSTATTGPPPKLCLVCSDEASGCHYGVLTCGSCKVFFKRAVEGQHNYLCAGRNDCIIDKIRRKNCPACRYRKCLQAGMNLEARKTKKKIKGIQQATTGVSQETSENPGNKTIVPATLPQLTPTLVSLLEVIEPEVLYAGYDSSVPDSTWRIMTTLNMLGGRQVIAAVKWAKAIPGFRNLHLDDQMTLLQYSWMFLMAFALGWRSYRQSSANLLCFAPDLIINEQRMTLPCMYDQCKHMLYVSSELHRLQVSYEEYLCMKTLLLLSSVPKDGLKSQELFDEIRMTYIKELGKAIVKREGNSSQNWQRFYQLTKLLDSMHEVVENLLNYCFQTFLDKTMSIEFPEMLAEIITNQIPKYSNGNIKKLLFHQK
From the text: The binding of the substances to the glucocorticoid receptor (GR) and other steroid hormone receptors (mineral corticoid receptor (MR), progesterone receptor (PR) and androgen receptor (AR)) is examined with the aid of recombinantly produced receptors. Cytosol preparations of Sf9 cells, which had been infected with recombinant baculoviruses, which code for the GR, are used for the binding studies. In comparison to reference substance [^3H]-dexamethasone, the substances show a high to very high affinity to GR.

[2] = tested on: IL-8 secretion in human monocyte cell line THP-1; experiment: Inhibition of LPS-triggered secretion of cytokine IL-8 in THP-1 cells (ELISA); assay type: cell-based; details: for IC50: Homo sapiens, THP-1 cells, LPS-triggered, ELISA of supernatant, read-out: IC50(IL8); for efficacy of IL-8 inhibition: in comparison with dexamethasone as reference
Experimental: The concentration of the cytokines was determined in the supernatant by means of commercially available ELISA kits.

IC50 [1] [nM] | IC50 [2] [nM] | Compound | efficacy of IL-8 inhibition [2] [%]
3.1 | 0.19 | COCC(O)(C(Nc1cc(F)cc2[nH]c(=O)ccc12)c1ccc(OC)c(F)c1Cl)C(F)(F)F (stereo not drawn) [Example 5, 5-{[1-(2-Chloro-3-fluoro-4-methoxyphenyl)-3,3,3-trifluoro-2-hydroxy-2-(methoxymethyl)propyl]amino}-7-fluoro-1H-quinolin-2-one] | 98
7.1 | 0.44 | COc1ccc(C(Nc2cc(F)cc3[nH]c(=O)ccc23)C(O)(CO)C(F)(F)F)c(Cl)c1F (stereo not drawn) [Example 7, 5-{[1-(2-Chloro-3-fluoro-4-methoxyphenyl)-3,3,3-trifluoro-2-hydroxy-2-(hydroxymethyl)-propyl]amino}-7-fluoro-1H-quinolin-2-one] | 98
 | 3.1 | COc1c(F)cc(Cl)cc1C(Nc1cc(F)cc2[nH]c(=O)ccc12)C(O)(CO)C(F)(F)F (stereo not drawn) [Example 8, 5-{[1-(5-Chloro-3-fluoro-2-methoxyphenyl)-3,3,3-trifluoro-2-hydroxy-2-(hydroxymethyl)-propyl]amino}-7-fluoro-1H-quinolin-2-one] | 80

The remaining lines, values behind:

Compound | IC50 [1] [nM] | IC50 [2] [nM] | efficacy of IL-8 inhibition [2] [%]
COc1ccc(C(Nc2cccc3[nH]c(=O)ccc23)C(O)(CSC)C(F)(F)F)c(F)c1 (stereo not drawn) [Example 1, 5-{[1-(2-Fluoro-4-methoxyphenyl)-3,3,3-trifluoro-2-hydroxy-2-([methylsulfanyl]methyl)propyl]amino}-1H-quinolin-2-one] | 6.8 |  | 
CCSCC(O)(C(Nc1cc(F)cc2[nH]c(=O)ccc12)c1ccc(OC)c(F)c1Cl)C(F)(F)F (stereo not drawn) [Example 4, 5-{[1-(2-Chloro-3-fluoro-4-methoxyphenyl)-2-([ethylsulfanyl]methyl)-3,3,3-trifluoro-2-hydroxypropyl]amino}-7-fluoro-1H-quinolin-2-one] | 5.7 | 0.61 | 97
